Reference: patent US9877981B2, “NAD biosynthesis and precursors for the treatment and prevention of cancer and proliferation” (President and Fellows of Harvard College, priority 2012, dated 2018)

Legend:
Format in all cases: cell-based, mouse
PGC-1α/β KO myotubes = experiment: qPCR of ETC genes in PGC-1α/β KO myotubes; conditions: for expression of nuclear- and mitochondrial-encoded genes: EX-527 48 h
Method: (§1) Primary myoblasts cells were isolated from WT, SIRT1 KO (Price et al., 2012) and PGC-1α/β KO (Zechner et al., 2010) mice as previously described (Price et al., 2012). WT and PGC-1α/β KO primary myoblasts were plated and allowed to differentiate into myotubes by replacing the media with low glucose DMEM supplemented with 2% horse serum (Sigma-Aldrich) for 4 days. After the differentiation the cells were infected with empty vector or flag-SIRT1 adenovirus as described before (Gerhart-Hines et al., 2007). Media was replaced with fresh DMEM supplemented with 2% horse serum (Sigma-Aldrich) for an additional 48 hr and, after that the cells were harvested for the different assays as described. To investigate the role of HIF-1α in genome asynchrony, PGC-1α/β KO primary myotubes were treated for 12 hours with 1 mM DMOG (Sigma) or 10 μM DFO (Sigma), 24 h after infection with empty vector of flag-SIRT1 adenovirus or after 12 h treatment with 500 mM NMN (Sigma).
(§2) RNA from skeletal muscle tissue and C2C12 cells were extracted with RNeasy mini kit (Qiagen) according to the instructions and quantified using the NanoDrop 1000 spectrophotometer (Thermo Scientific). cDNA was synthesized with the iSCRIP cDNA synthesis kit (BioRad) using 600 ng of RNA. Quantitative RT-PCR reactions were performed using 1 μM of primers and LightCycler® 480 SYBR Green Master (Roche) on an LightCycler® 480 detection system (Roche). Calculations were performed by a comparative method (2-ΔCT) using 18S as an internal control. For mtDNA analysis, total DNA was extracted with DNeasy blood and tissue kit (Qiagen). mtDNA was amplified using primers specific for the mitochondrial cytochrome c oxidase subunit 2 (COX2) gene and normalized to genomic DNA by amplification of the ribosomal protein s18 (rps18) nuclear gene. Primers were designed using the IDT software (IDT) and the primer sequences can be found in Table 1.

C2C12 myoblasts = experiment: mtDNA content and ETC gene expression in C2C12 myoblasts; conditions: C2C12 cells; 10 μM EX-527 for 12 h
Method: C2C12 cell line (ATCC) was cultured in low glucose Dulbecco's modified eagle medium (DMEM) (Invitrogen) supplemented with 10% FBS (Invitrogen) and a mix of antibiotic and antimycotic (Invitrogen). To inhibit SIRT1, cells were treated the vehicle (0.001% DMSO) or 10 μM EX-527 (Tocris) for 12 h. C2C12 myoblasts were infected with an empty or SIRT1 adenovirus as described before (Gerhart-Hines et al., 2007) and the media was replaced with fresh DMEM for additional 48 h, after that the cells were treated as described before. To test the effects of hypoxia and HIFα stabilization in genome asyncrony, C2C12 myoblasts were exposed to 1% oxygen for 16 h or treated with the vehicle (0.001% DMSO) or DMOG (Cayman) for the same period of time.
as §2

HIF-1α = experiment: Immunoblot of HIF-1α in primary WT myoblasts; conditions: 10 mM lactate 24 h
Method: as §1, with “To investigate the role of HIF-1α in genome asynchrony, PGC-1α/β KO primary myotubes were treated for 12 hours with 1 mM DMOG (Sigma) or 10 μM DFO (Sigma), 24 h after infection with empty vector of flag-SIRT1 adenovirus or after 12 h treatment with 500 mM NMN (Sigma).” left out
Protein extracts from tissue or C2C12 cells were obtained by lysis in ice-cold lysis buffer (150 mM NaCl, 10 mM Tris HCl (pH 7.4), 1 mM EDTA, 1 mM EGTA, 1% Triton X-100, 0.5% NP-40) supplemented with a cocktail of protease and phosphatase inhibitors (Roche). Protein content was determined by the Bradford protein assay (Biorad), and 50 μg proteins were run on SDS-PAGE under reducing conditions. […] The immunostaining was detected using horseradish peroxidase-conjugated anti-rabbit or anti-mouse immunoglobulin for 1 h at room temperature.

NAD+/NADH = NAD+/NADH ratio in primary myoblasts treated with pyruvate or lactate; conditions: primary WT myoblasts; 10 mM lactate 24 h
Method: as §1

## CC(=O)N(O)CCCCCNC(=O)CCC(=O)N(O)CCCCCNC(=O)CCC(=O)N(O)CCCCCN [DFO, desferrioxamine]
PGC-1α/β KO myotubes; PGC-1α/β KO myotubes, NMN plus 1 mM DMOG or 10 μM DFO, 12 hours
  effect on NMN-induced expression of mitochondrially-encoded ETC genes: completely abolished
PGC-1α/β KO myotubes; PGC-1α/β knockout myotubes with SIRT1 adenovirus, 1 mM DMOG or 10 μM DFO
  effect on induction of mitochondrial ETC genes by SIRT1 overexpression: completely blocked

## NC(=O)C1CCCc2c1[nH]c1ccc(Cl)cc21 (stereo not shown) [EX-527]
C2C12 myoblasts
  genome asynchrony: Genome asynchrony was induced
PGC-1α/β KO myotubes; PGC-1α/β KO myotubes reconstituted with PGC-1α T177A/S538A mutant
  expression of nuclear- and mitochondrial-encoded genes: only the mitochondrial-encoded genes decreased
PGC-1α/β KO myotubes; PGC-1α/β KO myotubes reconstituted with WT PGC-1α
  expression of nuclear- and mitochondrial-encoded genes: decreased both nuclear- and mitochondrial-encoded genes

## CC(O)C(=O)O (stereo not shown) [lactate]
HIF-1α
  HIF-1α protein stabilization: induces HIF-1α protein stabilization
NAD+/NADH
  NAD+/NADH ratio: decreasing NAD^+/NADH ratio
